Measured values from PubChem BioAssay (NCI).
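Compound exposure: 48 hours, 5 concentrations, 96-well plates. GI50 is the concentration that inhibits growth by half. Definition used: TGI = concentration required for complete inhibition of growth.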

Columns and labels:
Experiment in all cases: NCI tumour cell line growth inhibition, 48 h
786-0 renal = tested on: 786-0 renal
A498 renal = tested on: A498 renal
A549 NSCLC = tested on: A549 NSCLC
ACHN renal = tested on: ACHN renal
BT-549 breast = tested on: BT-549 breast
CAKI-1 renal = tested on: CAKI-1 renal
CCRF-CEM leukemia = tested on: CCRF-CEM leukemia
COLO 205 colon = tested on: COLO 205 colon
DU-145 prostate = tested on: DU-145 prostate
HCC-2998 colon = tested on: HCC-2998 colon
HCT-116 colon = tested on: HCT-116 colon
HCT-15 colon = tested on: HCT-15 colon
HOP-62 NSCLC = tested on: HOP-62 NSCLC
HOP-92 NSCLC = tested on: HOP-92 NSCLC
HS 578T breast = tested on: HS 578T breast
HT29 colon = tested on: HT29 colon
IGROV1 ovarian = tested on: IGROV1 ovarian
K-562 leukemia = tested on: K-562 leukemia
KM12 colon = tested on: KM12 colon
LOX IMVI melanoma = tested on: LOX IMVI melanoma
M14 melanoma = tested on: M14 melanoma
MALME-3M melanoma = tested on: MALME-3M melanoma
MCF7 breast = tested on: MCF7 breast
MDA-MB-231 breast = tested on: MDA-MB-231 breast
MDA-MB-435 = tested on: MDA-MB-435
MOLT-4 leukemia = tested on: MOLT-4 leukemia
NCI-H226 lung = tested on: NCI-H226 lung
NCI-H23 lung = tested on: NCI-H23 lung
NCI-H460 lung = tested on: NCI-H460 lung
NCI-H522 lung = tested on: NCI-H522 lung
NCI/ADR-RES ovarian = tested on: NCI/ADR-RES ovarian
OVCAR-4 ovarian = tested on: OVCAR-4 ovarian
OVCAR-5 ovarian = tested on: OVCAR-5 ovarian
OVCAR-8 ovarian = tested on: OVCAR-8 ovarian
PC-3 prostate = tested on: PC-3 prostate
RPMI-8226 leukemia = tested on: RPMI-8226 leukemia
RXF 393 renal = tested on: RXF 393 renal
SF-268 CNS = tested on: SF-268 CNS
SF-295 CNS = tested on: SF-295 CNS
SF-539 CNS = tested on: SF-539 CNS
SK-MEL-2 melanoma = tested on: SK-MEL-2 melanoma
SK-MEL-28 melanoma = tested on: SK-MEL-28 melanoma
SK-MEL-5 melanoma = tested on: SK-MEL-5 melanoma
SK-OV-3 ovarian = tested on: SK-OV-3 ovarian
SN12C renal = tested on: SN12C renal
SNB-19 CNS = tested on: SNB-19 CNS
SNB-75 CNS = tested on: SNB-75 CNS
SR leukemia = tested on: SR leukemia
SW-620 colon = tested on: SW-620 colon
T-47D breast = tested on: T-47D breast
TK-10 renal = tested on: TK-10 renal
U251 CNS = tested on: U251 CNS
UACC-257 melanoma = tested on: UACC-257 melanoma
UACC-62 melanoma = tested on: UACC-62 melanoma
UO-31 renal = tested on: UO-31 renal

CC(C)(C)c1ccc(S(=O)(=O)N[C@H]2CC[C@H]3[C@@H]4CCc5cc(OS(=O)(=O)O)ccc5[C@H]4CC[C@]23C)cc1
GI50 (786-0 renal): 2.5 µM | TGI (786-0 renal): 6.3 µM | GI50 (A498 renal): 1.5 µM | TGI (A498 renal): 3.04 µM | GI50 (A549 NSCLC): 2.83 µM | TGI (A549 NSCLC): 10.2 µM | GI50 (ACHN renal): 2.01 µM | TGI (ACHN renal): 4.24 µM | GI50 (BT-549 breast): 2.1 µM | TGI (BT-549 breast): 4.2 µM | GI50 (CAKI-1 renal): 2.77 µM | TGI (CAKI-1 renal): 8.89 µM | GI50 (CCRF-CEM leukemia): 2.88 µM | TGI (CCRF-CEM leukemia): 9.25 µM | GI50 (COLO 205 colon): 1.83 µM | TGI (COLO 205 colon): 3.29 µM | GI50 (DU-145 prostate): 5.72 µM | TGI (DU-145 prostate): 18 µM | GI50 (HCC-2998 colon): 4.09 µM | TGI (HCC-2998 colon): 13.1 µM | GI50 (HCT-116 colon): 1.79 µM | TGI (HCT-116 colon): 3.35 µM | GI50 (HCT-15 colon): 1.79 µM | TGI (HCT-15 colon): 3.59 µM | GI50 (HOP-62 NSCLC): 2.87 µM | TGI (HOP-62 NSCLC): 7.81 µM | GI50 (HOP-92 NSCLC): 2.11 µM | TGI (HOP-92 NSCLC): 5.31 µM | GI50 (HS 578T breast): 2.69 µM | TGI (HS 578T breast): 7.27 µM | GI50 (HT29 colon): 2.19 µM | TGI (HT29 colon): 4.57 µM | GI50 (IGROV1 ovarian): 3.63 µM | TGI (IGROV1 ovarian): 10.9 µM | GI50 (K-562 leukemia): 3.22 µM | TGI (K-562 leukemia): 13.6 µM | GI50 (KM12 colon): 2.08 µM | TGI (KM12 colon): 4.01 µM | GI50 (LOX IMVI melanoma): 1.7 µM | TGI (LOX IMVI melanoma): 3.11 µM | GI50 (M14 melanoma): 2.07 µM | TGI (M14 melanoma): 4.31 µM | GI50 (MALME-3M melanoma): 2.49 µM | TGI (MALME-3M melanoma): 6.05 µM | GI50 (MCF7 breast): 2.38 µM | TGI (MCF7 breast): 5.9 µM | GI50 (MDA-MB-231 breast): 1.94 µM | TGI (MDA-MB-231 breast): 4.26 µM | GI50 (MDA-MB-435): 2.32 µM | TGI (MDA-MB-435): 5.9 µM | GI50 (MOLT-4 leukemia): 2.65 µM | TGI (MOLT-4 leukemia): 9.55 µM | GI50 (NCI-H226 lung): 1.59 µM | TGI (NCI-H226 lung): 3.06 µM | GI50 (NCI-H23 lung): 2.6 µM | TGI (NCI-H23 lung): 9.15 µM | GI50 (NCI-H460 lung): 2.19 µM | TGI (NCI-H460 lung): 4.79 µM | GI50 (NCI-H522 lung): 1.93 µM | TGI (NCI-H522 lung): 5.15 µM | GI50 (NCI/ADR-RES ovarian): 2.39 µM | TGI (NCI/ADR-RES ovarian): 7.03 µM | GI50 (OVCAR-4 ovarian): 2.49 µM | TGI (OVCAR-4 ovarian): 9.92 µM | GI50 (OVCAR-5 ovarian): 1.88 µM | TGI (OVCAR-5 ovarian): 3.63 µM | GI50 (OVCAR-8 ovarian): 2.79 µM | TGI (OVCAR-8 ovarian): 8.46 µM | GI50 (PC-3 prostate): 4.19 µM | TGI (PC-3 prostate): 17.5 µM | GI50 (RPMI-8226 leukemia): 2.55 µM | TGI (RPMI-8226 leukemia): 7.37 µM | GI50 (RXF 393 renal): 1.6 µM | TGI (RXF 393 renal): 3.49 µM | GI50 (SF-268 CNS): 3.14 µM | TGI (SF-268 CNS): 11.5 µM | GI50 (SF-295 CNS): 2.51 µM | TGI (SF-295 CNS): 6.76 µM | GI50 (SF-539 CNS): 1.8 µM | TGI (SF-539 CNS): 3.34 µM | GI50 (SK-MEL-2 melanoma): 2.46 µM | TGI (SK-MEL-2 melanoma): 5.86 µM | GI50 (SK-MEL-28 melanoma): 1.8 µM | TGI (SK-MEL-28 melanoma): 3.38 µM | GI50 (SK-MEL-5 melanoma): 1.64 µM | TGI (SK-MEL-5 melanoma): 2.99 µM | GI50 (SK-OV-3 ovarian): 2.92 µM | TGI (SK-OV-3 ovarian): 8.54 µM | GI50 (SN12C renal): 1.81 µM | TGI (SN12C renal): 3.58 µM | GI50 (SNB-19 CNS): 3.49 µM | TGI (SNB-19 CNS): 13.8 µM | GI50 (SNB-75 CNS): 2.03 µM | TGI (SNB-75 CNS): 6.11 µM | GI50 (SR leukemia): 2.45 µM | TGI (SR leukemia): 7.02 µM | GI50 (SW-620 colon): 3.37 µM | TGI (SW-620 colon): 12.5 µM | GI50 (T-47D breast): 2.82 µM | TGI (T-47D breast): 9.96 µM | GI50 (TK-10 renal): 3.69 µM | TGI (TK-10 renal): 12.4 µM | GI50 (U251 CNS): 1.68 µM | TGI (U251 CNS): 3.34 µM | GI50 (UACC-257 melanoma): 2.75 µM | TGI (UACC-257 melanoma): 9.11 µM | GI50 (UACC-62 melanoma): 1.81 µM | TGI (UACC-62 melanoma): 3.72 µM | GI50 (UO-31 renal): 1.8 µM | TGI (UO-31 renal): 4.4 µM
